Data reported in PMC12865225 (Clinical and Translational Science, 2026).
Where “and” joins values, the source holds several entries; their conditions need not be identical. Equal entries are not always repeated. Marks after values point to notes of the source that are not given here.

Columns and labels:
OATP1B3 = target: T1, OATP1B3 (Homo sapiens, UniProt Q9NPD5); test: OATP1B3 inhibition, rosuvastatin uptake into transporter-expressing HEK293 cells; assay type: cell-based; conditions: for IC50: IC50 (95% CI), μM OATP1B3, 2.5 μM rosuvastatin, 2 min, 30 min preincubation; for Calculated R-value OATP1B3: R = 1 + (I in,max,u/IC50), FDA cut-off ≥ 1.1
T1 construct: expressed in transfected cells; host or cells: HEK293 (recombinant baculovirus-mediated transduction)
T1 sequence (Q9NPD5 1-702): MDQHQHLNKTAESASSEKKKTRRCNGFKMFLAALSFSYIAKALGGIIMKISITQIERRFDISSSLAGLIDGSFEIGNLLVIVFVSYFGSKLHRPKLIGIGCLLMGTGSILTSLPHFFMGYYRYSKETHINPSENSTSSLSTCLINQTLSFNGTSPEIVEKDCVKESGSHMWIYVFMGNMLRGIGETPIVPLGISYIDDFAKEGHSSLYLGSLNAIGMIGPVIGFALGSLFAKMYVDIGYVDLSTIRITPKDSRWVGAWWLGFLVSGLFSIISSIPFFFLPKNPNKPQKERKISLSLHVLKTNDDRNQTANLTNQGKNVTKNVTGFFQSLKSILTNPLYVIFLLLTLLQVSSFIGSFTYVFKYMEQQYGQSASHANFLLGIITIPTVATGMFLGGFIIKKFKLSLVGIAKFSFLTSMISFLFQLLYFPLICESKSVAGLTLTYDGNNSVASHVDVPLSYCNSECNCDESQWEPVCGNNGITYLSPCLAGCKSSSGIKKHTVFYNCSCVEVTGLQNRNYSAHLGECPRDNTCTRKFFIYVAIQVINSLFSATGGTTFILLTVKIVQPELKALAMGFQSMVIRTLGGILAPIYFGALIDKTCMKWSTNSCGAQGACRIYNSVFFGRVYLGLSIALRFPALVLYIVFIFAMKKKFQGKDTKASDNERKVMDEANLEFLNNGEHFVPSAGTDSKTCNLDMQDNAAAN
Experimental: (§1) The human transporters OATP1B1, OATP1B3, OATP2B1, and OAT1‐OAT4 and a negative control protein (enhanced yellow fluorescent protein, eYFP) were transiently expressed in human embryonic kidney 293 (HEK293) cells by recombinant baculovirus‐mediated transduction. Baculoviruses carrying human genes for the transporters were prepared as reported previously. HEK293 cells were cultured in DMEM containing 10% fetal bovine serum at 37°C and 5% CO2 and passaged two to three times per week. For the transport studies, 0.05 × 10^6 cells for 48‐well plates (OATPs) or 0.06 × 10^6 cells for 24‐well plates (OATs) were seeded onto cell‐culture treated well plates coated with poly‐D‐lysine. After 1 day, cells were transduced to produce recombinant proteins by changing media to DMEM containing 30 μL (48‐well plates) or 60 μL (24‐well plates) of recombinant baculovirus and 3 mM (OATs) or 5 mM (OATPs) sodium butyrate in a total media volume of 500 μL. The cells were cultured for a further 2 days before the transport assays.
(§2) For the transport studies, media were removed and cells were washed once with warm transport uptake buffer (TP‐buffer—pH 7.4 HBSS with 25 mM HEPES and 4 mM sodium bicarbonate). Each experiment included triplicate (OATP) or duplicate (OAT) samples for every test condition. The uptake was started by removing liquid from wells and applying warm TP‐buffer (200 μL for 24‐well plates or 125 μL for 48‐well plates) containing a test compound to cells. Transport assays were terminated after a pre‐specified incubation time (reported in figure legends) by removing substrate solution and washing cells three times with cold TP‐buffer (300 μL for 48‐well plates and 400 μL for 24‐well plates). For the liquid chromatography mass spectrometry (LC–MS) analysis, compounds were extracted from cells with 125 μL (48‐well plates) or 250 μL (24‐well plates) of an ultrapure‐water solution containing 75% methanol and 0.1% formic acid, shaking at 250 RPM for 30 min. […] Samples were transferred to well plates, centrifuged at 3000 g for 30 min, and transferred to a new well plate for the analysis.
In the OATP inhibition assays, inhibitors in warm TP‐buffer were directly applied to cells after media removal, followed by a 30‐min preincubation step in the presence of inhibitors. […] OAT1 and OAT3 cells were lysed with 200 μL of 1 M sodium hydroxide for 10 min, and 150 μL of these samples were transferred to a black well plate for fluorescein quantification. […]
For the inhibition data analysis, the average of measured concentrations in the control cells was subtracted from the average of measured concentrations in transporter‐expressing cells for each inhibitor concentration and then normalized to the vehicle sample that represents 100% transport activity. […]

OATP1B1 = target: T2, OATP1B1 (Homo sapiens, UniProt Q9Y6L6); test: Uptake transport assay in OATP1B1-expressing HEK293 cells; assay type: cell-based; conditions: for transport by OATP1B1: 2 and 50 μM, 10 min
T2 construct: expressed in transfected cells; host or cells: HEK293 (recombinant baculovirus-mediated transduction)
T2 sequence (Q9Y6L6 1-691): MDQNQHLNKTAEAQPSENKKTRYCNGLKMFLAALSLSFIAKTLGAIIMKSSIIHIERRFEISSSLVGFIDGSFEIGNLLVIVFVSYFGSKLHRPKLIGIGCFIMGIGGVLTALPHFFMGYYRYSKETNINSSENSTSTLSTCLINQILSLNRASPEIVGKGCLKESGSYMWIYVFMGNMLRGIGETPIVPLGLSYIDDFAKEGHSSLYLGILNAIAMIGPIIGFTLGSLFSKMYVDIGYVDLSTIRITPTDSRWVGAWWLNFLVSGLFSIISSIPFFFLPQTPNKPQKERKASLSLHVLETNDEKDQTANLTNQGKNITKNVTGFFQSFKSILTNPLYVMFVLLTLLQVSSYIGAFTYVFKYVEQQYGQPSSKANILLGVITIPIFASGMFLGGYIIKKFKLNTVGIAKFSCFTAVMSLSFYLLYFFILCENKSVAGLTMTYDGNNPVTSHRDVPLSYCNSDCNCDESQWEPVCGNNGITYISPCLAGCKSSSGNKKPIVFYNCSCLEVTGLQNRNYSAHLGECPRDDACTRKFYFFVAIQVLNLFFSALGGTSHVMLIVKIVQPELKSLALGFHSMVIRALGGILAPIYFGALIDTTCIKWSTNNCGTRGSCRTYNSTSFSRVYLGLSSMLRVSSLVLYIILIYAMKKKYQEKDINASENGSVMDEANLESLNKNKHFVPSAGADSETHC
Experimental: as §1, §2
Equation (2) (the Michaelis–Menten equation) was fit to the transport kinetic assay data. […] (2) Uptake=Vmax×S/Km+S

OAT2 = system: T3, OAT2; test: Uptake transport assay in OAT2-expressing HEK293 cells; assay type: cell-based, human; conditions: 2 and 50 μM, 10 min
T3 construct: expressed in transfected cells; host or cells: HEK293 (recombinant baculovirus-mediated transduction)
Experimental: as §1
For the transport studies, media were removed and cells were washed once with warm transport uptake buffer (TP‐buffer—pH 7.4 HBSS with 25 mM HEPES and 4 mM sodium bicarbonate). Each experiment included triplicate (OATP) or duplicate (OAT) samples for every test condition. […]

IC50 (OATP1B3)	Calculated R-value OATP1B3 (OATP1B3)	transport by OATP1B1 (OATP1B1)	Vmax (pmol/106 cells/min) OATP1B1 (OATP1B1; uptake, 2 min) [pmol/106 cells/min]	transport by OAT2 (OAT2)	Km (OATP1B1; uptake, 2 min) [µM]	Structure (SMILES)
6.7 µM and 6.68 µM	1.8 ^a	transported	15.9	transported		Cc1onc(-c2c(Cl)cccc2Cl)c1C(=O)N[C@@H]1C(=O)N2[C@@H]1SC(C)(C)[C@@H]2C(=O)O [Dicloxacillin]
21 µM	1.7 ^a	transported	23.5	transported	10 to 18	Cc1onc(-c2c(F)cccc2Cl)c1C(=O)N[C@@H]1C(=O)N2[C@@H]1SC(C)(C)[C@@H]2C(=O)O [Flucloxacillin]
